Where a name gives a salt, the structure may show the parent alone. Read-outs that look alike come from different tables or passages of the source. Each block holds one compound with its values, some of them ahead of it.
Assays:
[1] = system: MDBK line; test: MTT Cell Proliferation Assay, MDBK cells; assay type: cell-based, bovine
How it was run: (§1)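 Viability was measured by mitochondrial MTT reduction after cells were exposed to compound for 3 days in reduced-serum medium. Inhibition was calculated per plate against 0.5% DMSO controls.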

[2] = system: epithelial carcinoma A431 cell line; test: MTT Cell Proliferation Assay, A431 cells; assay type: cell-based; conditions: for MTT Assay IC50(A431/MDBK): ratio in parentheses: ratio MDBK IC50 / A431 IC50 (selectivity)
How it was run: as §1

[3] = target: T1, EGFR (Homo sapiens, UniProt P00533); test: EGFR in-cell Western (ICW) screening protocol (EGFR inhibition assay); assay type: cell-based; parameters: ICW 1 / ICW 2 / ICW Avg: unit not given here; conditions: for ICW Avg / ICW 1 / ICW 2: ICW assay; for ICW Avg: average of runs 1 and 2; for ICW 1: run 1; for ICW 2: run 2; for ICW Screen: Table 11, % Inhibition of EGF dependent EGFR phosphorylation in A431 cells, compound 125 μM in assay
T1 construct: host or cells: A431
How it was run: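 Serum-starved A431 cells (2 h) were pretreated with compound for 4 h at 37° C, then stimulated with EGF (10 ng/ml final, or 6.6 or 12.5 ng/ml in some runs) for 10 min. After formaldehyde fixation, phospho-EGFR (Tyr1173, or Tyr1045 in some runs) and total EGFR were detected by in-cell Western immunostaining.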

[4] = Bos taurus, MDBK, MDBK cells, second value of cell, read-out: MTT Assay IC50(A431/MDBK): MDBK
[5] = Homo sapiens, A-431, A431 cells, first value of cell, read-out: MTT Assay IC50(A431/MDBK): A431
[6] = MDBK cells, second value of cell, read-out: MTT Assay IC50(A431/MDBK): MDBK
[7] = A431 cells, first value of cell, read-out: MTT Assay IC50(A431/MDBK): A431
[8] = Bos taurus, MDBK, second value of 'a/b (c)', taken as MDBK cells, read-out: MTT Screen, second value of cell
[9] = Homo sapiens, A-431, first value of 'a/b (c)', taken as A431 cells, read-out: MTT Screen, first value of cell
[10] = Bos taurus, MDBK, Table 11, second of x/y(ratio): MDBK, unit not printed (doses in μM), read-out: MTT Screen (second value)
[11] = Homo sapiens, A-431, Table 11, first of x/y(ratio): A431, unit not printed (doses in μM), read-out: MTT Screen (first value)
[12] = Bos taurus, MDBK, Table 11, second of x/y(ratio): MDBK, unit inferred, read-out: MTT Follow-up (second value)
[13] = Homo sapiens, A-431, Table 11, first of x/y(ratio): A431, unit inferred, read-out: MTT Follow-up (first value)
[14] = Homo sapiens, A-431, 72 h, Table 11, first of x/y(ratio): A431, unit not printed (doses in μM), read-out: MTT Screen (first value)
[15] = Table 11, second of x/y(ratio): MDBK, unit not printed (doses in μM)
[16] = Table 11, second of x/y(ratio): MDBK, unit not printed (doses in μM), read-out: MTT Screen (second value)
[17] = Table 11, first of x/y(ratio): A431, unit not printed (doses in μM), read-out: MTT Screen (first value)

T1 sequence (P00533 25-1210): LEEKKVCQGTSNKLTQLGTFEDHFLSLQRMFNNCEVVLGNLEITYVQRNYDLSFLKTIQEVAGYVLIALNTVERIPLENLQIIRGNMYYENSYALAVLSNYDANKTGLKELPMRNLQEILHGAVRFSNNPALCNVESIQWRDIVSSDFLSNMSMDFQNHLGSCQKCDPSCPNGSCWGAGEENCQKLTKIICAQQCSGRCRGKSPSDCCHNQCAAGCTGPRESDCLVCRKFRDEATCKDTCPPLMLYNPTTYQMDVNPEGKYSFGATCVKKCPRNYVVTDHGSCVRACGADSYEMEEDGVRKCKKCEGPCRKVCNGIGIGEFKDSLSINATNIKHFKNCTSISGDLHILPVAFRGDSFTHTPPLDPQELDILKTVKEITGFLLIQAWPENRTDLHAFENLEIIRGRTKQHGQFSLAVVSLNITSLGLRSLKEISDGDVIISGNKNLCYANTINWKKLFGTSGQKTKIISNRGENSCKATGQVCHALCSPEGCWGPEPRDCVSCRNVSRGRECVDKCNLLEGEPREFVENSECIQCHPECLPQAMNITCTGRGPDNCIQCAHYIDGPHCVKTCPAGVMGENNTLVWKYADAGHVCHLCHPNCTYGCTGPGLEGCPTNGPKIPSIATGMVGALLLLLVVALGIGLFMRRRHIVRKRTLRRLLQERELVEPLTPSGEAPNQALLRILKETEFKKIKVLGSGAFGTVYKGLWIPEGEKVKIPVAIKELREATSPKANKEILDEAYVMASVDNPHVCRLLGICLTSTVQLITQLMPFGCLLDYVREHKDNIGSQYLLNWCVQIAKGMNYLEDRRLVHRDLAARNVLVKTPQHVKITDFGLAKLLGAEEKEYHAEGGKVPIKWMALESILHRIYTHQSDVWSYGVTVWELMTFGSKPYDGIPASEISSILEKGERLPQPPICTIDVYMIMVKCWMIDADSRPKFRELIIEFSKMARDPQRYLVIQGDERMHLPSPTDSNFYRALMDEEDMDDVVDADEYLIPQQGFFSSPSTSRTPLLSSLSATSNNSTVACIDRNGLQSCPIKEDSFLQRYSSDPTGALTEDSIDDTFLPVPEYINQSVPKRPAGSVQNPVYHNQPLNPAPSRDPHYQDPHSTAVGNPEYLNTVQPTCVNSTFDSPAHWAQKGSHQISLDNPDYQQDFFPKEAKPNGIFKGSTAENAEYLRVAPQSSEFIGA

SMILES: CCOc1cccc2c(C)nc(Nc3nc(C)c(C)c(=O)[nH]3)nc12 [12735 + TFA]
- IC50 [1, 4]: 15.3 µM
- IC50 [2, 5]: 17.9 µM
- MTT Assay IC50(A431/MDBK): ratio in parentheses [2]: 0.85
- ICW Avg [3]: 64.72
- ICW 1 [3]: 69.46
- ICW 2 [3]: 59.98

SMILES: CCc1c(C)nc(Nc2nc(C)c3cccc(OC)c3n2)[nH]c1=O [12738 + TFA]
- IC50 [1, 6]: 24.6 µM
- IC50 [2, 7]: 45.4 µM
- MTT Assay IC50(A431/MDBK): ratio in parentheses [2]: 0.54
- ICW Avg [3]: 45.35
- ICW 1 [3]: 53.67
- ICW 2 [3]: 37.02

SMILES: Cc1nc(Nc2nc(CSc3ccccn3)cc(=O)[nH]2)nc2ccccc12 [12740 + TFA]
- IC50 [1, 6]: 23.6 µM
- IC50 [2, 7]: 49.4 µM
- MTT Assay IC50(A431/MDBK): ratio in parentheses [2]: 0.48
- ICW Avg [3]: 28.34
- ICW 1 [3]: 28.77
- ICW 2 [3]: 27.91

SMILES: Cc1ccc2nc(Nc3nc(C(C)C)cc(=O)[nH]3)nc(C)c2c1 [12741 + TFA]
- IC50 [1, 4]: 28 µM
- IC50 [2, 5]: 63.2 µM
- MTT Assay IC50(A431/MDBK): ratio in parentheses [2]: 0.44
- ICW Avg [3]: 33.57
- ICW 1 [3]: 42.10
- ICW 2 [3]: 25.04

SMILES: CCCCc1c(C)nc(Nc2nc(C)c3ccccc3n2)[nH]c1=O [12743 + TFA]
- IC50 [1, 6]: 9.86 µM
- IC50 [2, 7]: 6.88 µM
- MTT Assay IC50(A431/MDBK): ratio in parentheses [2]: 1.43
- ICW Avg [3]: 25.65
- ICW 1 [3]: 9.17
- ICW 2 [3]: 42.12

SMILES: CCCCc1c(C)nc(Nc2nc(C)c3ccc(C)cc3n2)[nH]c1=O [12776 + TFA]
- IC50 [1, 4]: 19 µM
- IC50 [2, 5]: 29.7 µM
- MTT Assay IC50(A431/MDBK): ratio in parentheses [2]: 0.64
- ICW Avg [3]: 25.32
- ICW 1 [3]: 21.34
- ICW 2 [3]: 29.30

SMILES: O=C(NC(=S)Nc1ccc(S(=O)(=O)NCCc2ccccc2)cc1)C1CC1 [AD4-10120]
- IC50 [1, 8]: 39.3 µM
- IC50 [2, 9]: 22.8 µM
- ICW Screen (ICW Inhibition) [3]: 39.873

SMILES: CC(C)(C)C(=O)NC(=S)Nc1ccc(S(=O)(=O)NCCc2ccccc2)cc1 [AD4-10313]
- IC50 ([1]; second value of 'a/b (c)', taken as MDBK cells, read-out: MTT Screen, second value of cell): 17.6 µM
- IC50 ([2]; first value of 'a/b (c)', taken as A431 cells, read-out: MTT Screen, first value of cell): 20.9 µM
- ICW Screen (ICW Inhibition) [3]: 30.774

SMILES: CC(C)CC(=O)NC(=S)Nc1ccc(S(=O)(=O)NCCc2ccccc2)cc1 [AD4-10608]
- IC50 [1, 8]: 5.35 µM
- IC50 [2, 9]: 6.33 µM
- ICW Screen (ICW Inhibition) [3]: 62.846

SMILES: O=C(NC(=S)Nc1ccc(S(=O)(=O)NCCc2ccccc2)cc1)C1CCCC1 [AD4-10609]
- IC50 [1, 8]: 6.34 µM
- IC50 [2, 9]: 6.84 µM
- ICW Screen (ICW Inhibition) [3]: 43.828

SMILES: CC(C)C(=O)NC(=S)Nc1ccc(S(=O)(=O)NCCc2ccccc2)cc1 [AD4-10611]
- IC50 [1, 8]: 20 µM
- IC50 [2, 9]: 30.9 µM
- ICW Screen (ICW Inhibition) [3]: 38.285

SMILES: CCCC(=O)NC(=S)Nc1ccc(S(=O)(=O)NCCc2ccccc2)cc1 [AD4-10612]
- IC50 [1, 8]: 13.2 µM
- IC50 [2, 9]: 11.7 µM
- ICW Screen (ICW Inhibition) [3]: 30.841

SMILES: CC(C)(C)C(=O)NC(=S)Nc1ccc(S(=O)(=O)NCCc2ccccc2)cc1 [AD4-10613]
- IC50 [1, 8]: 11.8 µM
- IC50 [2, 9]: 13.9 µM
- ICW Screen (ICW Inhibition) [3]: 35.514

SMILES: CC(=O)NC(=S)Nc1ccc(S(=O)(=O)N2CCc3ccccc32)cc1 [AD4-10623]
- IC50 [1, 8]: 38.3 µM
- IC50 [2, 9]: 25.8 µM
- ICW Screen (ICW Inhibition) [3]: 46.185

SMILES: O=C(CCc1ccco1)NC(=S)Nc1ccc(S(=O)(=O)NCCc2ccccc2)cc1 [AD4-10624]
- IC50 [1, 8]: 16.8 µM
- IC50 [2, 9]: 25.6 µM
- ICW Screen (ICW Inhibition) [3]: 49.448

SMILES: CC(C)CC(=O)NC(=S)Nc1ccc(S(=O)(=O)N2CCc3ccccc32)cc1 [AD4-10626]
- IC50 [1, 8]: 19.6 µM
- IC50 [2, 9]: 5.31 µM
- ICW Screen (ICW Inhibition) [3]: 50.05

More lines, main results first:

- IC50 [2, 11]: 16.5 µM
- ICW Screen [3]: 39.389
SMILES: CCc1cc2c(CN3CCN(c4ccc(OC)cc4)CC3)cc(=O)oc2cc1O [AD4-10171]
- IC50 [1, 10]: 21 µM

- IC50 [2, 13]: 4.42 µM
- IC50 [2, 11]: 2.26 µM
- ICW Screen [3]: 45.85
SMILES: Cc1cc(C)c2oc(=O)cc(CN3CCN(Cc4ccc5c(c4)OCO5)CC3)c2c1 [AD4-10174]
- IC50 [1, 12]: 101 µM
- IC50 [1, 10]: 8.58 µM

- IC50 [2, 14]: 13.2 µM
- ICW Screen [3]: 34.742
SMILES: O=c1cc(CN2CCN(Cc3ccc4c(c3)OCO4)CC2)c2cc3c(cc2o1)CCC3 [AD4-10179]
- IC50 [1, 10]: 13.9 µM

- IC50 [2, 14]: 16.7 µM
- ICW Screen [3]: 32.1
SMILES: O=c1cc(CN2CCN(Cc3ccccc3)CC2)c2cc(Cl)c(O)cc2o1 [AD4-10180]
- IC50 [1, 10]: 36.3 µM

- IC50 [2, 14]: 2.61 µM
- ICW Screen [3]: 34.604
SMILES: Cc1ccc2c(CN3CCN(Cc4ccc5c(c4)OCO5)CC3)cc(=O)oc2c1C [AD4-10181]
- IC50 [1, 10]: 16 µM

- IC50 [2, 14]: 6.78 µM
- IC50 [2, 13]: 3.75 µM
- ICW Screen [3]: 39.51
SMILES: Cc1cc(C)c2c(CN3CCN(Cc4ccc5c(c4)OCO5)CC3)cc(=O)oc2c1 [AD4-10182]
- IC50 [1, 10]: 43.3 µM
- MTT Follow-up (second value) ([1]; Table 11, second of x/y(ratio): MDBK, unit not given): non- convergent

- IC50 [2, 11]: 40.1 µM
- ICW Screen [3]: 47.518
SMILES: CCc1cc2c(CN3CCN(Cc4ccccc4)CC3)cc(=O)oc2cc1O [AD4-10186]
- IC50 [1, 10]: 45.7 µM

- IC50 [2, 11]: 9.05 µM
- ICW Screen [3]: 53.35
SMILES: CC(C)c1ccc2oc(=O)cc(CN3CCN(C/C=C/c4ccccc4)CC3)c2c1 [AD4-10188]
- IC50 [1, 10]: 16.3 µM

- IC50 [2, 14]: 16.5 µM
- ICW Screen [3]: 16.772
SMILES: CC(C)c1ccc2oc(=O)cc(CN3CCN(Cc4ccc5c(c4)OCO5)CC3)c2c1 [AD4-10192]
- IC50 [1, 10]: 43.3 µM

- IC50 [2, 13]: 2.5 µM
- ICW Screen [3]: −10.6
SMILES: COc1ccc(N2CCN(Cc3cc(=O)oc4cc5c(cc34)OCO5)CC2)cc1 [AD4-10209]
- IC50 [1, 12]: 50.1 µM

- IC50 [2, 14]: 14 µM
- ICW Screen [3]: −1.007
SMILES: COc1ccc(N2CCN(Cc3cc(=O)oc4c(C)c(O)ccc34)CC2)cc1 [AD4-10217]
- MTT Screen (second value) [1, 15]: non-convergent

- IC50 [2, 17]: 22.2 µM
- ICW Screen [3]: 29.223
SMILES: Cc1c(O)ccc2c(CN3CCN(Cc4ccc5c(c4)OCO5)CC3)cc(=O)oc12 [AD4-10491]
- IC50 [1, 16]: 40.6 µM

- IC50 [2, 14]: 18.4 µM
- ICW Screen [3]: −3.062
SMILES: O=c1cc(CN2CCN(Cc3ccc4c(c3)OCO4)CC2)c2cc(Cl)c(O)cc2o1 [AD4-10618]
- MTT Screen (second value) [1, 15]: non-convergent

- IC50 [2, 13]: 2.97 µM
- ICW Screen [3]: −44.55
SMILES: CCc1cc2c(CN3CCN(C(c4ccccc4)c4ccccc4)CC3)cc(=O)oc2cc1O [AD4-10619]
- IC50 [1, 12]: 3.06 µM
- MTT Screen, % @ […] ([2]; Table 11, @ […], cell line not stated): 87% @ 2.6 μM

- IC50 [2, 17]: 35.6 µM
- ICW Screen [3]: 104.48
SMILES: CCc1cc2c(CN3CCN(Cc4ccccc4)CC3)cc(=O)oc2cc1O [AD4-10631]
- IC50 [1, 16]: 37.5 µM

- IC50 [2, 11]: 5.2 µM
- ICW Screen [3]: 46.398
SMILES: O=c1cc(CN2CCN(C(c3ccccc3)c3ccccc3)CC2)c2ccc(O)c(O)c2o1 [AD4-10633]
- MTT Screen (second value) [1, 15]: non- convergent
- MTT Follow-up (first value) ([2]; Table 11, first of x/y(ratio): A431, unit not given): Not Convergent

— patent US20140179681A1, “METHODS AND COMPOSITIONS OF TARGETED DRUG DEVELOPMENT” (priority 2010, published 2014)
